Reference: patent US12044651B2, “Sensor device and methods” (SCENTIAN BIO LIMITED, priority 2016, dated 2024)

Tests used:
[1] = CNT-FET control, pristine CNT FET and empty nanodisc functionalized CNT FET (Example 2)
Protocol: In order to carry out the electrical measurements the devices were set up with the PDMS well and source, drain and gate electrodes, via micromanipulators and a Rucker and Kolls probe station, as shown in FIG. 9. Before starting the electrical measurements, 100 μl of PBS buffer (containing 1% DMSO) was added into the testing well. The gate electrode is an Ag/AgCl wire (In Vivo Metric) sheathed in plastic where the exposed area at the end of Ag/AgCl was completely inserted into the PBS buffer to avoid any electrical artefacts that are known to occur when changing the active area of the gate electrode. An Agilent 4156C parameter analyser is used for all electrical measurements^20. The parameter analyser has excellent sensitivity and can accurately measure currents on the femto-amp scale.
During transfer (Vlg−Ids) measurements the gate voltage (Vlg) is swept between −500 mV to +1 V and the source drain voltage (Vds) is set as fixed values (50 mV, 100 mV or 200 mV). For our real time sensing measurement the Vlg is set to 0 and Vds is set as fixed values (50 mV, 100 mV or 200 mV, with a time step of 1 s.
The E-2-hexenal ligand solution is diluted from our 100 mM stock solution, to the concentration ranges required for the sensing experiments. […]

[2] = CNT-FET control covalently functionalized with empty nanodiscs (Example 3); conditions: empty nanodiscs 1:100 dilution; increasing amounts of ligand
Protocol: The dispersion was sonicated until a clear solution was obtained. The temperature was kept at 25° C. throughout the sonication process. The thiolpyridine solution was prepared by dissolving 10 mg of 2-Mercaptopyridine (99%, Sigma Aldrich) in 1 ml of methanol. The solution was spun coated on a polydimethylsiloxane (PDMS) surface at 2000 rpm for one minute. Before the spin coating process, the PDMS surface was cleaned by a 50 W Oxygen plasma for 1 minute to improve the wettability. The cleaned substrates were placed upside down on the PDMS surface for three minutes and washed in ethanol to remove the excess thiolpyridine molecules. Then the substrates were transferred into the CNT suspension and immersed into the suspension for 10 minutes. The samples were removed from the suspension and dipped into Ethanol for another 10 minutes to remove the thiolpyridine molecules in the SWNT network. The alignment markers were deposited by defining the markers by photolithography and thermal evaporation of 5 nm Chromium and 50 nm of Gold. The metal Lift off was done by acetone immersion for 15 minutes followed by an Isopropyl alcohol (IPA) wash and N2 blow dry. The result is a uniform thin film CNT network covering the entire substrate surface. Nanodiscs were prepared using a protocol modified from Bayburt et al. 2010 and 2003^55, 56. Nanodiscs were formed at an MSP:protein:lipid ratio of 1:0.2:150. […]

Structure (SMILES) | real time current response [1] | current response [2]
CCC/C=C/C=O [E2-hexenal] | no clear current response | –
COC(=O)c1ccccc1O [methyl salicylate] | – | no increase in current
